This is an account of results in DBAASP.

Test in all cases: ≥ marks a high value that may be exact or a test limit, other limits are often not marked, values filed in µg/mL are converted to µM
The subject of test [1] is Candida albicans MDM8.
In test [2] the test system is Pseudomonas aeruginosa ATCC 27853.
Test [3] relates to Escherichia coli SBS 363.
The subject of test [4] is Staphylococcus aureus ATCC 29213.
For test [5], the system named is Bacillus subtilis ATCC 6633.
Test [6] deals with Bacillus megaterium ATCC 10778.
The subject of test [7] is Enterobacter cloacae beta-12.
Test [8] has as its system Candida tropicalis IOC 4560.
Test [9] relates to Serratia marcescens ATCC 4112.
Test [10] deals with Micrococcus luteus A270.
Test [11] relates to Pseudomonas aeruginosa H1001.
In test [12] the test system is Staphylococcus aureus SH1000.
Test [13] has as its system Escherichia coli DH5alpha.
For test [14], the system named is Listeria innocua.
For test [15], the system named is Escherichia coli.
In test [16] the test system is Salmonella enterica subsp. enterica serovar Enteritidis.
Test [17] deals with Staphylococcus aureus MW2.
Test [18] has as its system Acinetobacter baumannii ATCC 7978.
The test system of test [19] is Klebsiella pneumoniae WGLW2.
Test [20] relates to Staphylococcus aureus ATCC 29231.
Test [21] has as its system Klebsiella aerogenes ATCC 13048.
The test system of test [22] is Candida albicans ATCC 10231.

In brackets after ≈: the same amount, converted by molar mass.

Usually MIC stands for the least concentration at which growth counts as inhibited. Low values mean greater potency, high ones weaker potency. In the case of `CC(C)C[C@H](NC(=O)[C@H](C)NC(=O)CNC(=O)[C@H](CC(C)C)NC(=O)[C@@H](N)Cc1ccccc1)C(=O)N[C@@H](Cc1c[nH]c2ccccc12)C(=O)N[C@@H](CC(N)=O)C(=O)N[C@H](C(=O)N[C@@H](C)C(=O)N[C@@H](CCCCN)C(=O)N[C@@H](CO)C(=O)N[C@@H](Cc1ccc(O)cc1)C(=O)N[C@@H](Cc1ccccc1)C(N)=O)C(C)C` [FLGALWNVAKSYF], the MIC in test [1] is not below 50 µM; in [2], more than 50 µM; in test [3] it was 6.3 µM (≈ 9.54 µg/mL); in test [4], 3.1 µM (≈ 4.7 µg/mL); in [5] it was 1.6 µM (≈ 2.42 µg/mL); in test [6] it was 3.1 µM (≈ 4.7 µg/mL). The minimum inhibitory concentration (MIC) in test [7] was not below 50 µM; in [8], 12.5 µM (≈ 18.9 µg/mL); in [9], 0.4 µM (≈ 0.606 µg/mL); in [10], 0.8 µM (≈ 1.21 µg/mL).

With `CC[C@H](C)[C@H](NC(=O)[C@H](CCCN=C(N)N)NC(=O)[C@H](CCCCN)NC(=O)[C@@H]1CCCN1C(=O)[C@@H]1CCCN1C(=O)[C@H](CCCN=C(N)N)NC(=O)[C@@H]1CCCN1C(=O)[C@H](CCCN=C(N)N)NC(=O)[C@@H]1CCCN1C(=O)[C@H](CC(C)C)NC(=O)[C@H](Cc1ccc(O)cc1)NC(=O)[C@@H]1CCCN1C(=O)[C@@H]1CCCN1C(=O)[C@H](CCCCN)NC(=O)[C@H](CC(=O)O)NC(=O)[C@@H](N)C(C)C)C(=O)N[C@@H](Cc1ccc(O)cc1)C(=O)N[C@@H](CC(N)=O)C(=O)N[C@@H](CCCN=C(N)N)C(=O)NCC(=O)O` [VDKPPYLPRPRPPKRIYNRG], in test [11], the MIC came out at 0.112 µM (≈ 0.27 µg/mL).

`CC(C)C[C@H](NC(=O)CN)C(=O)N[C@@H](Cc1ccccc1)C(=O)N[C@@H](CC(=O)O)C(=O)N[C@@H](CC(C)C)C(=O)N[C@@H](CC(C)C)C(=O)N[C@@H](CCCCN)C(=O)N[C@@H](CCCCN)C(=O)N[C@@H](CC(C)C)C(=O)N[C@@H](CC(C)C)C(=O)N[C@@H](CCCCN)C(=O)N[C@@H](CC(C)C)C(=O)N[C@@H](CC(C)C)C(=O)N[C@@H](CCCCN)C(N)=O` [GLFDLLKKLLKLLK] returned an MIC in [12] not below 100 µM.

As for `CC[C@H](C)[C@H](NC(=O)[C@H](C)NC(=O)[C@H](CCCCN)NC(=O)[C@@H](NC(=O)[C@H](CC(C)C)NC(=O)[C@H](CCCCN)NC(=O)[C@H](CCCCN)NC(=O)[C@@H](NC(=O)CNC(=O)[C@H](C)NC(=O)[C@H](Cc1ccccc1)NC(=O)[C@H](Cc1ccccc1)NC(=O)[C@H](CCCCN)NC(=O)CNC(=O)[C@@H](N)Cc1c[nH]c2ccccc12)C(C)C)[C@@H](C)O)C(=O)N[C@@H](CC(C)C)C(=O)NCC(=O)N[C@@H](CCC(=O)O)C(=O)N[C@H](C(=O)N[C@@H](C)C(N)=O)[C@@H](C)CC` [WGKFFAGVKKLTKAILGEIA], the MIC in test [12] and in test [13] was 3.16 µM (≈ 6.88 µg/mL) each time.

With `CC(C)C[C@H](NC(=O)[C@H](C)NC(=O)[C@H](CC(N)=O)NC(=O)[C@H](C)NC(=O)[C@@H](NC(=O)CNC(=O)[C@H](C)NC(=O)[C@@H](NC(=O)[C@@H](NC(=O)[C@H](CCCCN)NC(=O)[C@H](CCC(N)=O)NC(=O)[C@H](Cc1ccccc1)NC(=O)[C@H](CC(=O)O)NC(=O)[C@H](C)NC(=O)[C@H](CCC(N)=O)NC(=O)[C@H](CC(C)C)NC(=O)[C@@H](NC(=O)[C@@H]1CCCN1C(=O)[C@@H](NC(=O)[C@@H](N)Cc1ccccc1)[C@@H](C)O)C(C)C)C(C)C)C(C)C)C(C)C)C(=O)N[C@@H](C)C(=O)N[C@@H](Cc1cnc[nH]1)C(=O)N[C@@H](CCCN=C(N)N)C(=O)N[C@@H](Cc1ccc(O)cc1)C(=O)N[C@@H](Cc1cnc[nH]1)C(=O)O` [FTPVLQADFQKVVAGVANALAHRYH], the MIC in [14] is not below 73 µM; in test [15], 73 µM (≈ 201 µg/mL); in [16], not below 73 µM; in test [10], not below 85 µM.

For `CC[C@H](C)[C@H](NC(=O)[C@H](C)NC(=O)[C@H](CCCCN)NC(=O)[C@@H](NC(=O)[C@H](CC(C)C)NC(=O)[C@H](CCCCN)NC(=O)[C@H](CCCCN)NC(=O)[C@@H](NC(=O)CNC(=O)[C@H](C)NC(=O)[C@H](Cc1ccccc1)NC(=O)[C@H](Cc1ccccc1)NC(=O)[C@H](CCCCN)NC(=O)CNC(=O)[C@@H](N)Cc1c[nH]c2ccccc12)C(C)C)[C@@H](C)O)C(=O)N[C@@H](CC(C)C)C(=O)N[C@@H](C)C(=O)N[C@H](C(=O)N[C@@H](CCCN=C(N)N)C(=O)N[C@@H](C)C(N)=O)C(C)C` [WGKFFAGVKKLTKAILAVRA], the MIC in test [12] worked out at 3.16 µM (≈ 6.97 µg/mL); in test [13], 10 µM (≈ 22 µg/mL).

On to `CC(C)C[C@H](NC(=O)[C@@H](N)C(C)C)C(=O)N[C@@H](CO)C(=O)N[C@@H](C)C(=O)N[C@@H](C)C(=O)N[C@@H](CC(=O)O)C(=O)N[C@@H](CCCCN)C(=O)NCC(=O)N[C@@H](CC(N)=O)C(=O)N[C@H](C(=O)N[C@@H](CCCCN)C(=O)N[C@@H](C)C(=O)N[C@@H](C)C(=O)N[C@@H](Cc1c[nH]c2ccccc12)C(=O)NCC(=O)N[C@@H](CCCCN)C(=O)N[C@H](C(=O)NCC(=O)NCC(=O)N[C@@H](Cc1cnc[nH]1)C(=O)N[C@@H](C)C(=O)N[C@@H](C)C(=O)N[C@@H](CCC(=O)O)C(=O)N[C@@H](Cc1ccc(O)cc1)C(=O)NCC(=O)N[C@@H](C)C(=O)N[C@@H](CCC(=O)O)C(=O)N[C@@H](C)C(=O)O)C(C)C)C(C)C` [VLSAADKGNVKAAWGKVGGHAAEYGAEA], for which the minimum inhibitory concentration (MIC) in test [14] is 27 µM (≈ 73.7 µg/mL); in [15] it was 54 µM (≈ 147 µg/mL); in test [16], 27 µM (≈ 73.7 µg/mL); in test [10], not below 54 µM.

Take `CC[C@H](C)[C@H](NC(=O)[C@H](CCCN=C(N)N)NC(=O)[C@H](CCCN=C(N)N)NC(=O)[C@H](CCCN=C(N)N)NC(=O)[C@@H]1CCCN1C(=O)[C@H](CCCN=C(N)N)NC(=O)[C@@H]1CCCN1C(=O)[C@H](CCCN=C(N)N)NC(=O)[C@@H]1CCCN1C(=O)[C@H](CC(C)C)NC(=O)[C@H](Cc1ccc(O)cc1)NC(=O)[C@@H]1CCCN1C(=O)[C@@H]1CCCN1C(=O)[C@H](CCCCN)NC(=O)[C@H](CC(=O)O)NC(=O)[C@@H](N)C(C)C)C(=O)N[C@@H](Cc1ccc(O)cc1)C(=O)N[C@@H](CC(N)=O)C(=O)N[C@@H](CCCN=C(N)N)C(=O)NCC(=O)O` [VDKPPYLPRPRPRRRIYNRG]: the minimum inhibitory concentration (MIC) in [11] was 0.12 µM (≈ 0.3 µg/mL).

In the case of `CC[C@H](C)[C@H](NC(=O)[C@H](Cc1c[nH]c2ccccc12)NC(=O)[C@H](CCCCN)NC(=O)[C@@H](N)CC(C)C)C(=O)NCC(=O)N[C@@H](CCCCN)C(=O)N[C@@H](Cc1c[nH]c2ccccc12)C(=O)N[C@H](C(=O)N[C@@H](Cc1c[nH]c2ccccc12)C(=O)N[C@@H](CCCN=C(N)N)C(=O)N[C@H](C(=O)NCC(=O)O)C(C)C)[C@@H](C)CC` [LKWIGKWIWRVG], the MIC in test [17] is not below 41.5 µM; in test [18], not below 83 µM; in test [19] it was not below 83 µM; in [20] it was not below 83 µM.

In the case of `CC[C@H](C)[C@H](NC(=O)[C@H](CCCCN)NC(=O)[C@H](Cc1c[nH]c2ccccc12)NC(=O)[C@@H](N)CC(C)C)C(=O)NCC(=O)N[C@@H](Cc1c[nH]c2ccccc12)C(=O)N[C@@H](CCCCN)C(=O)N[C@H](C(=O)N[C@@H](Cc1c[nH]c2ccccc12)C(=O)N[C@@H](CCCN=C(N)N)C(=O)N[C@H](C(=O)NCC(=O)N[C@@H](Cc1c[nH]c2ccccc12)C(=O)N[C@@H](CC(N)=O)C(=O)N[C@@H](Cc1c[nH]c2ccccc12)C(=O)N[C@@H](CCCN=C(N)N)C(=O)O)C(C)C)[C@@H](C)CC` [LWKIGWKIWRVGWNWR], the MIC is 14.7 µM (≈ 32 µg/mL) in test [17]; not below 58.6 µM in [21]; 29.3 µM (≈ 64 µg/mL) in test [22]; 14.7 µM (≈ 32 µg/mL) in [18]; 14.7 µM (≈ 32 µg/mL) in test [20].

For the molecule `CC[C@H](C)[C@H](NC(=O)[C@H](C)NC(=O)[C@H](CC(N)=O)NC(=O)[C@H](CCSC)NC(=O)[C@@H]1CCCN1)C(=O)N[C@@H](CCCCN)C(=O)N[C@@H](CC(C)C)C(=O)N[C@@H](CC(C)C)C(=O)N[C@@H](CS)C(=O)N[C@@H](CCCN=C(N)N)C(=O)O` [PMNAIKLLCR], in [11], the minimal inhibitory concentration (MIC) is not below 173 µM.
